Laboratory results reported in patent publication US20240108634A1, “COMPOSITIONS AND METHODS FOR INHIBITING YAP” (The United States Government as represented by the …, priority 2021, published 2024).

What was measured:
YAP-TEAD interaction = target: T1, YAP-TEAD interaction (Homo sapiens, UniProt P46937); assay: Co-immunoprecipitation of myc-TEAD with HA-YAP from treated LN229 cells; assay type: cell-based; conditions: LN229 GBM cells, 24 h
T1 construct: expressed in transfected cells; host or cells: LN229
T1 sequence (P46937 whole entry): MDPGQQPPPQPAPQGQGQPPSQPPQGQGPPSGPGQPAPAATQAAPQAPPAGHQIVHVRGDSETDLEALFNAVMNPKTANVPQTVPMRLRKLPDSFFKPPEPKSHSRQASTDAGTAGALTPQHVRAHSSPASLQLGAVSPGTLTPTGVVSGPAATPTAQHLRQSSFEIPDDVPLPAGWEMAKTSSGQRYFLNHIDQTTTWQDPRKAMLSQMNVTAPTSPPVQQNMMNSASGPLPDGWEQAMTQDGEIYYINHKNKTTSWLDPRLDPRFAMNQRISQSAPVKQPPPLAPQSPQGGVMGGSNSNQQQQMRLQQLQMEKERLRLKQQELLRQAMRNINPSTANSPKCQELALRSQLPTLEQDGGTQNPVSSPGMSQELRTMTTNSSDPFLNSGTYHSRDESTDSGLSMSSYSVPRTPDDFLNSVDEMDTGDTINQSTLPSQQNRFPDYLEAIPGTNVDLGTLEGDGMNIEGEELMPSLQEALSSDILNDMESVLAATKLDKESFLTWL
Protocol: FIGS. 1A-G show the identification of a YAP1-TEAD1 binding interface inhibitor. […] The Gal4 DBD was fused to residues 50-171 of human YAP1 and the Gal4 AD was fused to residues 194-411 of human TEAD1. These fusions were expressed in yeast containing reporters harboring Gal4 upstream activating sequences (UAS). […] Yeast expressing either p53-DBD and SV40 large T antigen-AD fusions or YAP1-DBD and TEAD1-AD fusions were plated on selective media. Compounds were pinned onto the plate surfaces by robotic transfer and subsequently examined for halo formation (indicated by red circles). Compounds inhibiting YAP1-TEAD1 mediated growth on selective media while having no effect on p53-T antigen mediated yeast growth were considered specific. Compounds which blocked the growth of both strains were considered nonspecific and were classified as having general antifungal properties. […] His-tagged YAP (amino acids 50-171 of Accession No. NP_006097) was used in a GST pull-down assay using GST-TEAD (amino acids 194-411 of Accession No. NP_068780) immobilized on glutathione resin. Pull-down products were analyzed by SDS-PAGE and silver staining. […] Cells treated with antimycin A are shown as a negative control. […] Raw binding sensorgrams obtained at each concentration were fitted to a 1:1 binding model and Kon, Koff and KD were calculated by simultaneous non-linear regression analyses.
Protein and mRNA analyses, immunoprecipitation, in vitro bead-coupled inhibitor binding assays and HPLC analyses. […] Antigen-antibody complexes were detected using appropriate horseradish peroxidase-conjugated secondary antibodies (GE Healthcare) and enhanced chemiluminescence (Amersham ECL Prime). […] For quantitative RT-PCR, extraction of RNA was performed using Trizol® (Life Technologies). Total RNA was then quantified and integrity assessed using an Agilent 2100 Bioanalyzer (Agilent Technology). […] SYBR® Green quantitative PCR (Millipore Sigma) was performed in triplicate in 96-well optical plates on an ABI Prism 7000 Sequence Detection System (Life Technologies) according to the manufacturer's instructions. […]

[1] = Toxicity in treated mice (weight, blood cell counts, ALT, AST, creatinine); assay type: in vivo
Description: Data are expressed as percent of control mice that received vehicle and assigned 100%.
Materials and Methods. Cell culture, vectors and reagents. Normal mature human neurons were obtained from ScienCell (Carlsbad, CA). Lines were routinely tested to confirm the absence of mycoplasma and authenticated by short tandem repeat profiling (ATCC). The myc-tagged TEAD (pRK5-Myc-TEAD1) and HA-tagged YAP1 (pCl-HA-YAP) vectors were used for mammalian expression and TEAD was subcloned into pGEX-2TK, while YAP was subcloned into pET-14b for bacterial expression and purification. DNA transfections were performed using Effectene transfection reagent according to the manufacturer (QIAGEN) and lentiviral transductions were performed as previously described (Rosenbluh J, et al. (2012) Cell 151: 1457-1473). Large-scale syntheses of NSC682769 was performed by New England Discovery Partners, Branford, CT. The other reagents including kits for ALT, AST and creatinine level determinations were from Sigma-Aldrich.
NSC682769 inhibits GBM tumor growth in xenografted mice. To examine the effects of NSC682769 in vivo, the ability of the compound to inhibit the growth of LN229 xenografted tumors implanted subcutaneously in SCID mice was tested. Following implantation, when tumors reached ˜200 mm^3, mice were randomized into treatment groups receiving vehicle, 5 mg/kg/d and 20 mg/kg/d of NSC682769. […]

With `COc1ccc(-c2cc(-c3ccccc3)nc3c2CC(=O)Nc2ccccc2-3)cc1OC` [NSC682769] the “Association of YAP1 with TEAD1 in YAP1 immunoprecipitates” value (YAP-TEAD interaction) was “blocked the association of YAP1 with TEAD1”, the “Overt toxicity or weight loss” value ([1]; 5 and 20 mg/kg/d) was “No overt short or long-term toxicity or weight loss” and the “Blood cell counts, serum ALT, AST, creatinine” value ([1]; daily IP, 5 days, 5 or 20 mg/kg/d) was “neither blood cell counts nor serum alanine aminotransferase (ALT), aspartate aminotransferase (AST) or creatinine levels were affected”.
